Reference: patent US6737383B1, “Herbicidal oxadiazolidines” (priority 1999, dated 2004)

Legend:
purple nutsedge = experiment: Test B pre/postemergence purple nutsedge; assay type: in vivo, Cyperus rotundus; settings: for Nutsedge plant response rating: scale of 0 to 10 where 0 is no effect and 10 is complete control
How it was run: (§1)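 Response is a visual 0-to-10 score relative to untreated plants, where 0 means no effect and 10 means complete control, taken twelve to sixteen days after application. Treatments went onto soil at planting and onto foliage of 1- to 4-leaf plants, using a surfactant-containing non-phytotoxic solvent.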

soybean = experiment: Test B pre/postemergence soybean; assay type: in vivo, Glycine max; settings: for Soybean plant response rating: scale of 0 to 10 where 0 is no effect and 10 is complete control
How it was run: as §1

corn = experiment: Test B pre/postemergence corn; assay type: in vivo, Zea mays; settings: for Corn plant response rating: scale of 0 to 10 where 0 is no effect and 10 is complete control
How it was run: as §1

sugar beet = experiment: Test B pre/postemergence sugar beet; assay type: in vivo, Beta vulgaris; settings: for Sugarbeets plant response rating: scale of 0 to 10 where 0 is no effect and 10 is complete control
How it was run: as §1

bedstraw = experiment: Test B pre/postemergence bedstraw; assay type: in vivo, Galium aparine
How it was run: as §1

rape = experiment: Test B pre/postemergence rape; assay type: in vivo, Brassica napus; settings: for Rape plant response rating: scale of 0 to 10 where 0 is no effect and 10 is complete control
How it was run: as §1

cocklebur = experiment: Test B pre/postemergence cocklebur; assay type: in vivo, Xanthium strumarium; settings: for Cocklebur plant response rating: scale of 0 to 10 where 0 is no effect and 10 is complete control
How it was run: as §1

wheat = experiment: Test B pre/postemergence wheat; assay type: in vivo, Triticum aestivum; settings: for Wheat plant response rating: scale of 0 to 10 where 0 is no effect and 10 is complete control
How it was run: as §1

duck salad = experiment: Test B flood test duck salad; assay type: in vivo, Heteranthera limosa
How it was run: (§2)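 Flood test on plants grown to the 2-leaf stage; treated plants kept in greenhouse twelve to sixteen days, then visually rated against controls on a 0 (no effect) to 10 (complete control) scale.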

blackgrass = experiment: Test B pre/postemergence blackgrass; assay type: in vivo, Alopecurus myosuroides
How it was run: as §1

crabgrass = experiment: Test B pre/postemergence crabgrass; assay type: in vivo, Digitaria sanguinalis; settings: for Crabgrass plant response rating: scale of 0 to 10 where 0 is no effect and 10 is complete control
How it was run: as §1

surinam grass = experiment: Test B pre/postemergence surinam grass; assay type: in vivo, Brachiaria decumbens
How it was run: as §1

rice = experiment: Test B flood test rice; assay type: in vivo, Oryza sativa
How it was run: as §2

giant foxtail = experiment: Test B pre/postemergence giant foxtail; assay type: in vivo, Setaria faberii; settings: for Giant foxtail plant response rating: scale of 0 to 10 where 0 is no effect and 10 is complete control
How it was run: as §1

smallflower flatsedge = experiment: Test B flood test smallflower flatsedge; assay type: in vivo, Cyperus difformis
How it was run: as §2

bamyardgrass = experiment: Test B flood test barnyardgrass; assay type: in vivo, Echinochloa crus-galli
How it was run: as §2

velvetleaf = experiment: Test B pre/postemergence velvetleaf; assay type: in vivo, Abutilon theophrasti; settings: for Velvetleaf plant response rating: scale of 0 to 10 where 0 is no effect and 10 is complete control
How it was run: as §1

[1] = Postemergence, Rate 125 g/ha, scale 0 to 10, 0 is no effect, 10 is complete control
[2] = Preemergence, Rate 62 g/ha, scale 0 to 10 (0 no effect, 10 complete control)
[3] = Rate 500 g/ha, Postemergence, scale 0 to 10, 0 no effect, 10 complete control
[4] = Preemergence, Rate 250 g/ha, scale of 0 to 10 where 0 is no effect and 10 is complete control
[5] = Rate 62 g/ha, Postemergence, scale of 0 to 10 where 0 is no effect and 10 is complete control
[6] = Rate 250 g/ha, Postemergence, scale of 0 to 10 where 0 is no effect and 10 is complete control
[7] = Postemergence (flood test), Rate 125 g/ha, scale 0 to 10, 0 is no effect, 10 is complete control
[8] = Rate 62 g/ha, Postemergence (flood test species), scale of 0 to 10 where 0 is no effect and 10 is complete control
[9] = Rate 500 g/ha, listed under Postemergence (flood test species), scale 0 to 10, 0 no effect, 10 complete control
[10] = Preemergence, Rate 500 g/ha, scale of 0 to 10 where 0 is no effect and 10 is complete control

SMILES: CC(C)N(C(=O)n1oc(=O)n(C2CCCCCC2)c1=O)c1ccc(F)cc1F [Compound 342]
- Plant response rating, Nutsedge (purple nutsedge; [1]): 0
- Plant response rating, Nutsedge (purple nutsedge; [2]): 0
- Nutsedge plant response rating (0 to 10 scale) (purple nutsedge; Preemergence, Rate 125 g/ha): 0
- Nutsedge plant response rating (purple nutsedge; Preemergence, Rate 250 g/ha): 0
- Nutsedge plant response rating (purple nutsedge; Preemergence, Rate 500 g/ha): 0
- Nutsedge plant response rating (purple nutsedge; Rate 62 g/ha, Postemergence): 0
- Plant response rating, Nutsedge (purple nutsedge; [3]): 0
- Plant response rating, Soybean (soybean; [1]): 5
- Plant response rating, Soybean (soybean; [2]): 0
- Soybean plant response rating (0 to 10 scale) (soybean; Preemergence, Rate 125 g/ha): 0
- Soybean plant response rating (soybean; Preemergence, Rate 250 g/ha): 0
- Soybean plant response rating (soybean; Preemergence, Rate 500 g/ha): 0
- Soybean plant response rating (soybean; Rate 62 g/ha, Postemergence): 3
- Plant response rating, Soybean (soybean; [3]): 7
- Plant response rating, Corn (corn; [1]): 0
- Plant response rating, Corn (corn; [2]): 0
- Corn plant response rating (0 to 10 scale) (corn; Preemergence, Rate 125 g/ha): 0
- Corn plant response rating (corn; Preemergence, Rate 250 g/ha): 0
- Corn plant response rating (corn; Preemergence, Rate 500 g/ha): 0
- Corn plant response rating (corn; Rate 62 g/ha, Postemergence): 0
- Plant response rating, Corn (corn; [3]): 0
- Plant response rating, Sugarbeets (sugar beet; [1]): 0
- Plant response rating, Sugarbeets (sugar beet; [2]): 0
- Sugarbeets plant response rating (0 to 10 scale) (sugar beet; Preemergence, Rate 125 g/ha): 0
- Sugarbeets plant response rating (sugar beet; Preemergence, Rate 250 g/ha): 0
- Sugarbeets plant response rating (sugar beet; Preemergence, Rate 500 g/ha): 0
- Sugarbeets plant response rating (sugar beet; Rate 62 g/ha, Postemergence): 0
- Plant response rating, Sugarbeets (sugar beet; [3]): 0
- Plant response rating, Bedstraw (bedstraw; [1]): 5
- Plant response rating, Bedstraw (bedstraw; [2]): 0
- Bedstraw plant response rating (0 to 10 scale) (bedstraw; Preemergence, Rate 125 g/ha): 0
- Bedstraw plant response rating (bedstraw; [4]): 0
- Bedstraw plant response rating (bedstraw; [5]): 4
- Plant response rating, Bedstraw (bedstraw; [6]): 5
- Plant response rating, Bedstraw (bedstraw; [3]): 5
- Plant response rating, Rape (rape; [1]): 0
- Plant response rating, Rape (rape; [2]): 0
- Rape plant response rating (0 to 10 scale) (rape; Preemergence, Rate 125 g/ha): 0
- Rape plant response rating (rape; Preemergence, Rate 250 g/ha): 0
- Rape plant response rating (rape; Preemergence, Rate 500 g/ha): 0
- Rape plant response rating (rape; Rate 62 g/ha, Postemergence): 0
- Plant response rating, Rape (rape; [3]): 4
- Plant response rating, Cocklebur (cocklebur; [1]): 0
- Plant response rating, Cocklebur (cocklebur; [2]): 0
- Cocklebur plant response rating (0 to 10 scale) (cocklebur; Preemergence, Rate 125 g/ha): 0
- Cocklebur plant response rating (cocklebur; Preemergence, Rate 500 g/ha): 0
- Cocklebur plant response rating (cocklebur; Rate 62 g/ha, Postemergence): 0
- Plant response rating, Cocklebur (cocklebur; [3]): 0
- Plant response rating, Wheat (wheat; [1]): 0
- Plant response rating, Wheat (wheat; [2]): 0
- Wheat plant response rating (0 to 10 scale) (wheat; Preemergence, Rate 125 g/ha): 0
- Wheat plant response rating (wheat; Preemergence, Rate 250 g/ha): 0
- Wheat plant response rating (wheat; Preemergence, Rate 500 g/ha): 3
- Wheat plant response rating (wheat; Rate 62 g/ha, Postemergence): 0
- Plant response rating, Wheat (wheat; [3]): 0
- Plant response rating, Ducksalad (duck salad; [7]): 0
- Ducksalad plant response rating (duck salad; [8]): 0
- Plant response rating, Ducksalad (duck salad; [9]): 4
- Plant response rating, Blackgrass (blackgrass; [1]): 0
- Plant response rating, Blackgrass (blackgrass; [2]): 0
- Blackgrass plant response rating (0 to 10 scale) (blackgrass; Preemergence, Rate 125 g/ha): 3
- Blackgrass plant response rating (blackgrass; [4]): 3
- Blackgrass plant response rating (blackgrass; [10]): 7
- Blackgrass plant response rating (blackgrass; [5]): 0
- Plant response rating, Blackgrass (blackgrass; [6]): 2
- Plant response rating, Blackgrass (blackgrass; [3]): 4
- Plant response rating, Crabgrass (crabgrass; [1]): 0
- Plant response rating, Crabgrass (crabgrass; [2]): 4
- Crabgrass plant response rating (0 to 10 scale) (crabgrass; Preemergence, Rate 125 g/ha): 6
- Crabgrass plant response rating (crabgrass; Preemergence, Rate 250 g/ha): 9
- Crabgrass plant response rating (crabgrass; Preemergence, Rate 500 g/ha): 9
- Crabgrass plant response rating (crabgrass; Rate 62 g/ha, Postemergence): 0
- Plant response rating, Crabgrass (crabgrass; [3]): 3
- Plant response rating, B. signalgrass (surinam grass; [1]): 0
- Plant response rating, B. signalgrass (surinam grass; [2]): 0
- B. signalgrass plant response rating (0 to 10 scale, 0 is no effect, 10 is complete control) (surinam grass; Preemergence, Rate 125 g/ha): 0
- B. signalgrass plant response rating (surinam grass; [4]): 2
- B. signalgrass plant response rating (surinam grass; [10]): 6
- B. signalgrass plant response rating (surinam grass; [5]): 0
- Plant response rating, B. signalgrass (surinam grass; [6]): 0
- Plant response rating, B. signalgrass (surinam grass; [3]): 1
- Plant response rating, Rice (rice; [7]): 0
- Rice plant response rating (rice; [8]): 0
- Plant response rating, Rice (rice; [9]): 0
- Plant response rating, Giant foxtail (giant foxtail; [1]): 0
- Plant response rating, Giant foxtail (giant foxtail; [2]): 8
- Giant foxtail plant response rating (0 to 10 scale) (giant foxtail; Preemergence, Rate 125 g/ha): 9
- Giant foxtail plant response rating (giant foxtail; Preemergence, Rate 250 g/ha): 10
- Giant foxtail plant response rating (giant foxtail; Preemergence, Rate 500 g/ha): 10
- Giant foxtail plant response rating (giant foxtail; Rate 62 g/ha, Postemergence): 0
- Plant response rating, Giant foxtail (giant foxtail; [3]): 7
- Plant response rating, S. Flatsedge (smallflower flatsedge; [7]): 4
- S. Flatsedge plant response rating (smallflower flatsedge; [8]): 0
- Plant response rating, Barnyardgrass (bamyardgrass; [7]): 2
- Barnyardgrass plant response rating (bamyardgrass; [8]): 0
- Plant response rating, Barnyardgrass (bamyardgrass; Rate 250 g/ha, Postemergence (flood test species), scale of 0 to 10 where 0 is no effect and 10 is complete control): 9
- Plant response rating, Barnyardgrass (bamyardgrass; [9]): 9
- Plant response rating, Velvetleaf (velvetleaf; [1]): 0
- Plant response rating, Velvetleaf (velvetleaf; [2]): 0
- Velvetleaf plant response rating (0 to 10 scale) (velvetleaf; Preemergence, Rate 125 g/ha): 0
- Velvetleaf plant response rating (velvetleaf; Preemergence, Rate 250 g/ha): 0
- Velvetleaf plant response rating (velvetleaf; Preemergence, Rate 500 g/ha): 0
- Velvetleaf plant response rating (velvetleaf; Rate 62 g/ha, Postemergence): 0
- Plant response rating, Velvetleaf (velvetleaf; [3]): 0
